The text below walks through data of paper PMC9328741 (Microbial Biotechnology, 2022).

Assay [1] has as its system MycspAAO. Description: initial rates from HMF concentration over time, Lineweaver-Burk. The settings on record: 0.1-80 mM HMF, 10 µg/ml enzyme, 100 mM sodium phosphate pH 8, 30 °C. It counts as biochemical, Mycobacterium sp. MS1601.
For assay [2], the system named is MycspAAO. The settings on record: 0.1-80 mM HMF, 10 µg/ml enzyme, 100 mM sodium phosphate pH 8, 30 °C.

Like-named read-outs stand apart in the source and are kept apart here.

As to `O=Cc1ccc(CO)o1` [5-hydroxymethylfurfural], the Km stood at 3.3 ± 0.3 mM in assay [1] and 1.9 ± 0.005 mM in assay [2].
